This is an account of results in US20220162610A1, “NOVEL RNA TRANSCRIPT” (PTC Therapeutics, Inc., priority 2020, published 2022).

Structures are written as SMILES.

The subject of one data set is HTT protein. Kind of data set: HTT protein electrochemiluminescence (ECL) assay in HD patient fibroblasts, 96 h. The data set is classed as cell-based, human. The settings on record: fibroblasts derived from HD patients, 96 h. On the procedure:
Human fibroblasts derived from a homozygous patient with HD (GM4857) were cultured for 96 hours in the presence of test compounds (in 0.5% DMSO) or controls at 37° C. in a humidified 5% CO2 atmosphere. After 96 hours, cells were lysed and frozen. HTT protein levels were measured in lysates as described below. Compounds that decreased HTT protein levels relative to DMSO control were further tested in a dose response assay.
For analysis in the electrochemiluminescence (ECL) assays, test compounds were serially diluted 3-fold in 100% DMSO (Sigma) to generate a 7-point concentration curve. A solution of test compound (500 nL, 200× in DMSO) was added to each test well with Acoustic Transfer System (EDC Biosystems); final concentration of DMSO was 0.5%. Fibroblasts were seeded in 96-well flat-bottomed plates (Thermo Fisher) at 4×10^3 cells/well in 100 μl of culture medium containing the test compound or DMSO vehicle control and incubated for 96 hours (37° C., 5% CO2, 100% relative humidity). After removal of the supernatant, cells were lysed in 50 μL of 1×LB11 extraction buffer (50 mM Tris (pH 7.4), 300 mM NaCl, 10% [w/v] glycerol, 3 mM EDTA, 1 mM MgCl2, 20 mM glycerophosphate, 25 mM NaF, 1% Triton X-100), containing a Complete™ protease inhibitor cocktail (Roche Diagnostics) with shaking at 4° C. for 30 minutes; the plates were then stored at −20° C.
Meso Scale Discovery® 96-well plates (MSD®) were coated overnight at 4° C. with primary antibodies in phosphate-buffered saline (PBS; 30 μl/well). The plates were washed three times with 0.05% Tween-20 in 1×PBS (PBS-T; 200 μl/well) then blocked (100 μl/well; 5% bovine serum albumin [BSA] in PBS-T) for 5-6 hours at room temperature (RT) with shaking. Plates were then washed three times with PBS-T. Cell lysates were transferred to the antibody coated plates (25 μl/well) and incubated with shaking overnight at 4° C. After removal of the lysates, the plates were washed three times with PBS-T, and 25 μl of detection antibody in 1% BSA, PBS-T was added to each well and incubated with shaking for 1 hour at room temperature. After three washes with PBS-T, 25 μl of Sulfo-Tag secondary antibody (MSD®; 0.25 μg/ml in 1% BSA, PBS-T) was added to each well and incubated with shaking for 1 hour at RT. After washing three times with PBS-T, 150 μl of read buffer T with surfactant (MSD®) was added to each empty well and the plate was imaged on the SI 6000 imager (MSD®) according to manufacturers' instructions for 96-well plates. Primary capture antibodies included: anti-polyglutamine-expanded HTT mouse monoclonal antibody (mAb) clone MW1 (1 μg/mL; Developmental Studies Hybridoma Bank); anti-HTT MAB2166 mAb (1 μg/mL; Millipore); anti-human KRAS rabbit polyclonal antibody (1 μg/mL; Thermo Fisher Scientific). Detection antibodies included: Huntingtin (D7F7) XP® Rabbit mAb (0.25 μg/ml; Cell Signalling Technology®); anti-hKRAS mouse mAb (0.25 μg/ml; LSBIO).

A short description of data set [1]: Unbound brain partition coefficient (Kp,uu) from mouse PK studies. The data set is classed as in vivo. The settings on record: FVB (WT littermates of the BACHD colony), brain and plasma (unbound), oral, 10 mg/kg, average over animals of multiple mouse PK studies. On the procedure:
Oral pharmacokinetics (PK) of compounds was evaluated in WT littermates from the BACHD colony (FVB background). Mice were treated with test compounds (10 mg/kg) by oral gavage in 0.5% hydroxypropylmethyl cellulose (HPMC) with 0.1% Tween 80. Blood was collected by terminal cardiac puncture at specified time points (3 mice per time point) and centrifuged to generate plasma. Brain tissue was collected at the time of blood collection and homogenized in water. Protein was precipitated from plasma and brain homogenates with acetonitrile, methanol mixture (5:1, v:v) containing an internal standard that is a close analog of the test compounds. The mixture was filtered through an EMD Millipore MultiScreen™ Solvinert Filter Plate (MSRLN04, Millipore, Burlington, Mass.). Calibration standards were prepared in the same matrix and processed with the testing samples. Filtrates were analysed using Acquity ultra performance liquid chromatography (UPLC) system (Waters Corporation) tandem with Xevo TQ-s Spectrometer (Waters Corporation). Samples were injected on to a Waters UPLC Acquity BEH C18 Column (2.1*50 mm, 1.7 μm) maintained at 50° C. The injection volume was 3 μL and the mobile phase flow rate was 0.45 mL/min. The mobile phase consisted of 2 solvents: A) 0.1% formic acid in water and B) 0.1% formic acid in acetonitrile. The initial mobile phase started with 5% solvent B for 0.4 min, which was changed to […] over 0.8 min with linear gradients and then maintained at 95% solvent B for another 0.4 min. The drug concentrations were acquired and processed with MassLynx 4.1 software. PK parameters were estimated using the non-compartment method within Phoenix® WinNonlin® Build 8.1 (Certara USA, Inc., Princeton, N.J.).
The unbound brain partition coefficient (Kp,uu) is defined as the ratio between unbound brain free drug concentration and unbound plasma concentration. It was calculated using the following equation:
Kp,uu=Cbrain×fu,b/(Cplasma*fu,p)
Cbrain and Cplasma represent the compound concentrations in brain and plasma, respectively. fu,b and fu,p are the unbound fraction of each testing article in brain and plasma, respectively. Both fu,b and fu,p were determined in vitro using Pierce Rapid Equilibrium Dialysis (RED) device at Absorption System LLC (Exton, Pa.). Kp,uu was calculated individually for each animal from multiple mouse PK studies and the average values are reported here.

The target in another data set is T1, MDR1 (Homo sapiens, UniProt P08183).
T1 construct: host or cells: MDCK (Madin-Darby Canine Kidney) cells expressing MDR1
T1 sequence (P08183 whole entry): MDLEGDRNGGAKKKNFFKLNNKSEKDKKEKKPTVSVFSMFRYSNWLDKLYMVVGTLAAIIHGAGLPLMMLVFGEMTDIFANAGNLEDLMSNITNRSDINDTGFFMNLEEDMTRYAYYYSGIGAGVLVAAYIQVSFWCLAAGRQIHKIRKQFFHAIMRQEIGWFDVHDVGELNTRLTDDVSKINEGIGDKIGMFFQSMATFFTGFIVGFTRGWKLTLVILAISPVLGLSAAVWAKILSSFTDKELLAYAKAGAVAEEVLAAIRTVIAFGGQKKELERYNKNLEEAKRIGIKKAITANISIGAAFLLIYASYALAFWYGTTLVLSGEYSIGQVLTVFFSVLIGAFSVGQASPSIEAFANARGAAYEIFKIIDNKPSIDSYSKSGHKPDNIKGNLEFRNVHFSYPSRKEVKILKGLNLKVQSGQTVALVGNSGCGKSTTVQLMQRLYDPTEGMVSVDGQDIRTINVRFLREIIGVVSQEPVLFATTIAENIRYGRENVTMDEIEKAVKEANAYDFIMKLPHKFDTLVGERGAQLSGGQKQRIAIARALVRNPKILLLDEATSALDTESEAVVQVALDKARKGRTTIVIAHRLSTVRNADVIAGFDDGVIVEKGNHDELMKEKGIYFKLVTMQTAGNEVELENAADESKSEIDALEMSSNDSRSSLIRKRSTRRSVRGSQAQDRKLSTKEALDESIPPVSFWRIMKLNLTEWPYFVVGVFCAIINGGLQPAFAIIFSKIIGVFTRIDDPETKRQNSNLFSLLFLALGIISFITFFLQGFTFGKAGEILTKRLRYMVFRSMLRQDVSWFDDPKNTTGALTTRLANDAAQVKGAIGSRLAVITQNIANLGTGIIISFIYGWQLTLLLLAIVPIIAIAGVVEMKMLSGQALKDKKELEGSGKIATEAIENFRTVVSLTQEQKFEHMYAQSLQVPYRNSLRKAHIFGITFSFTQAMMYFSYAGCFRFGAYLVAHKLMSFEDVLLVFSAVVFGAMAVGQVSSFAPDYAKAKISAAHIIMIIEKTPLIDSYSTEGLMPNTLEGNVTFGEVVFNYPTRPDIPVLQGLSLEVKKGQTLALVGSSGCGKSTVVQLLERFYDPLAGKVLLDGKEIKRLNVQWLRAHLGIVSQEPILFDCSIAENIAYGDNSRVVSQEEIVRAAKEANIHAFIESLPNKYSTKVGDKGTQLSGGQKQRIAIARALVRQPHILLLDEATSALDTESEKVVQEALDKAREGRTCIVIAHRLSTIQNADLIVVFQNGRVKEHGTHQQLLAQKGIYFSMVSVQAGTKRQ
Put plainly: MDCK-MDR1 efflux assay. The data set is classed as in vitro ADME. The settings on record: 10 μM, MDCK-MDR1 and MDCK-WT monolayers, 1 hour. On the procedure: The MDR1 efflux assay was conducted at Absorption System LLC (Exton, Pa.). Briefly, MDCK-MDR1 and MDCK-WT cell monolayers were grown to confluence on collagen-coated, microporous membranes in 12-well assay plates (Thermofisher). Compound solutions (10 μM) in permeability assay buffer (Hanks' balanced salt solution (HBSS), 10 mM HEPES, 15 mM glucose; pH of 7.4) were placed in the donor chamber. The receiver chamber was filled with assay buffer plus 1% BSA. Cell monolayers were dosed on the apical side (A-to-B) or basolateral side (B-to-A) and incubated at 37° C. (5% CO2, 100% relative humidity). Sampling from the donor chambers was performed at 0 and 1 hour; and from the receiver chambers at 1 hour. Each determination was performed in duplicate. The flux of lucifer yellow was also measured post-experimentally for each monolayer to ensure no damage was inflicted to the cell monolayers during the flux period. All samples were assayed by LC-MS/MS using electrospray ionisation. The apparent permeability (Papp) and percent recovery was determined using the following equation: […]
dCr/dt represents the slope of the cumulative receiver concentration versus time in μM/s; Vr is the volume of the receiver compartment (cm3); Vd is the volume of the donor compartment in (cm3); A is the area of the insert (1.13 cm2 for 12-well); C0 is the average measured concentration of the donor chamber at time zero in μM; Net Efflux ratio (ER) is defined as […].

In a further data set the test system is HTT pre-mRNA. Kind of data set: Ampliseq/RNAseq analysis of intron 49 pseudoexon inclusion and HTT expression in different cell types. Type of data set: cell-based, human.

For the compound `CC(C)c1cc(-c2n[nH]cc2-c2ccc3c(c2)OCO3)c(O)cc1O` [HTT-A], in the data set with HTT protein, the HTT protein level entry is on record as “lower HTT protein levels”.

The compound `CC1(C)CC(n2nnc3cc(-c4ccc(-n5nccn5)cc4O)nnc32)CC(C)(C)N1` [HTT-C3] showed a Kp uu in data set [1] of 0.848. In addition, the “NET MDR1 ER” value at MDR1 came out at 2.0. Moreover, the “HTT gene expression quantified using RNAseq (FPKM)” value in the data set on HTT pre-mRNA (100 nM, SHSY5Y cells (HTT-C2), TK6 cells (HTT-C3)) is recorded as “reduced HTT gene expression”. Besides, in the data set with HTT pre-mRNA (HD fibroblasts, SH-SY5Y, TK6, MRC-5 cells), the “inclusion of intron 49 pseudoexon” value was “induced the inclusion of an Intron 49 pseudoexon”.

With `Cn1c(/C=C/c2ccc(Cl)cc2)c([N+](=O)[O-])c(=O)n(C)c1=O` [HTT-B], in the data set with HTT protein, the HTT protein level entry was “lower HTT protein levels”.
